Measurements from ChEMBL document CHEMBL3871307, “Discovery of Chromane Propionic Acid Analogues as Selective Agonists of GPR120 with in Vivo Activity in Rodents” (ACS Med Chem Lett, 2017).
Calls of active or inactive are those of the source. The rule behind the calls is not given here.

Tests used:
[1] = molecular target: T1, Free fatty acid receptor 4 (Homo sapiens, UniProt Q5NUL3); assay: Agonist activity at human GPR120 short isoform expressed in CHOK1 cells assessed as increase in IP1 accumulation after 60 mins by HTRF assay; type: functional, cell-based, CHO-K1
T1 sequence (Q5NUL3 whole entry): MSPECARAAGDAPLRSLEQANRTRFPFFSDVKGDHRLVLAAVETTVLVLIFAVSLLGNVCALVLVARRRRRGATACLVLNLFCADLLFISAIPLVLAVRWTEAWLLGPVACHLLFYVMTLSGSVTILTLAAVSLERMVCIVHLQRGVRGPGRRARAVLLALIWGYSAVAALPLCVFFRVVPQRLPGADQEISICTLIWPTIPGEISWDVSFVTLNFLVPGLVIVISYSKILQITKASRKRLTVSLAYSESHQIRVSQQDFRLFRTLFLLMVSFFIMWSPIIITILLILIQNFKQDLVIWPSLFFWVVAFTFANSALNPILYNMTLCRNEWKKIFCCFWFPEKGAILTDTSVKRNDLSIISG

[2] = molecular target: T1, Free fatty acid receptor 4; assay: Agonist activity at human GPR120 short isoform expressed in CHOK1 cells assessed as beta-arrestin recruitment after 90 mins by luminescence assay; type: cell-based, CHO-K1
[3] = molecular target: T2, Free fatty acid receptor 4 (Homo sapiens) (UniProt Q5NUL3); assay: Agonist activity at human GPR120 short isoform expressed in CHOK1 cells assessed as increase in IP1 accumulation at 10 uM after 60 mins by HTRF assay; type: functional, cell-based; settings: CHO-K1
T2 sequence (whole entry): T1 sequence (Q5NUL3 whole entry)

[4] = molecular target: Free fatty acid receptor 1 (Homo sapiens, UniProt O14842); assay: Agonist activity at human GPR40 expressed in HEK293 cells assessed as increase in IP1 accumulation after 60 mins by HTRF assay; type: functional, cell-based
[5] = Terminal half life in rat plasma at 0.1 mg/kg administered as iv casette dose by LC/MS/MS analysis; type: ADME, organism-based; settings: read-out: beta t1/2 (converted)
[6] = test system: Mus musculus; assay: Glucose lowering effect in C57BL/6 transverse aortic constriction mouse assessed as reduction in blood glucose at 3 to 30 mg/kg, po via gavage pretreated for 60 mins followed by dextrose challenge measured up to 120 mins post glucose challenge by OGTT; type: functional, organism-based
[7] = test system: Mus musculus; assay: Glucose lowering effect in C57BL/6 transverse aortic constriction mouse assessed as reduction in blood glucose pretreated for 60 mins via oral gavage followed by dextrose challenge measured up to 120 mins post glucose challenge by OGTT; type: functional
[8] = Plasma concentration in C57BL/6 transverse aortic constriction mouse at 10 mg/kg, po via gavage measured at 3 hrs; type: ADME, organism-based; settings: C57BL/6, mouse
[9] = Plasma concentration in wild type C57BL/6 transverse aortic constriction mouse harboring GPR120 at 150 mg/kg, po measured at 3 hrs; type: ADME, organism-based; settings: C57BL/6, mouse
[10] = Inhibition of IKr (unknown origin) expressed in HEK293 cells; type: cell-based, Homo sapiens
[11] = molecular target: Cytochrome P450 2C9 (Homo sapiens, UniProt P11712); assay: Inhibition of human CYP2C9; type: ADME
[12] = molecular target: T3, Peroxisome proliferator-activated receptor alpha (Homo sapiens) (UniProt Q07869); assay: Activity at PPARalpha (unknown origin)
T3 sequence (whole entry): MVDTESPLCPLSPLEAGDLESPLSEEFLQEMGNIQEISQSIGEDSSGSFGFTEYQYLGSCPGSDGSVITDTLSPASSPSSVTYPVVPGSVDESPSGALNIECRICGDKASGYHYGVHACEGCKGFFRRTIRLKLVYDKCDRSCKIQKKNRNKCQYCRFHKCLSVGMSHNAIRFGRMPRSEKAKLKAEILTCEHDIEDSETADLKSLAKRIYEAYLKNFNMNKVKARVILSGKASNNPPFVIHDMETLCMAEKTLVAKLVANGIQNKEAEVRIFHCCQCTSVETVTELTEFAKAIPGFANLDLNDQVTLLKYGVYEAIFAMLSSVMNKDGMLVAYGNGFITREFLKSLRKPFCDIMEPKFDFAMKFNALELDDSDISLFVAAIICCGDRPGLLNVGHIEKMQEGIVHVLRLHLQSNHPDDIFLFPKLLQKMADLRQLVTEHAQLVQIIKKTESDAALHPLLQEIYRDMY

[13] = molecular target: T4, Peroxisome proliferator-activated receptor delta (Homo sapiens) (UniProt Q03181); assay: Activity at PPARdelta (unknown origin)
T4 sequence (whole entry): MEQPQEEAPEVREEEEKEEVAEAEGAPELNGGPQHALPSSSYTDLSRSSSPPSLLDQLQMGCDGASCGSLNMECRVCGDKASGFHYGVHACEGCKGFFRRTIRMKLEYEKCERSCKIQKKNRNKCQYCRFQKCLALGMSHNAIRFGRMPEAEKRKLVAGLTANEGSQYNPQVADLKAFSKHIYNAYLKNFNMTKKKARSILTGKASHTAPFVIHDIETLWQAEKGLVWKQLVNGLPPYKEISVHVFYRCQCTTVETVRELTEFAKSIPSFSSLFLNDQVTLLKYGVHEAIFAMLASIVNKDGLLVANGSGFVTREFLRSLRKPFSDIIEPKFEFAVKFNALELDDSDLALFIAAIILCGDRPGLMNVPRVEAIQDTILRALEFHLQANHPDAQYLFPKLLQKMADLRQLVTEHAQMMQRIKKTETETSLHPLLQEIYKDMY

[14] = molecular target: T5, Peroxisome proliferator-activated receptor gamma (Homo sapiens) (UniProt P37231); assay: Activity at PPARgamma (unknown origin)
T5 sequence (whole entry): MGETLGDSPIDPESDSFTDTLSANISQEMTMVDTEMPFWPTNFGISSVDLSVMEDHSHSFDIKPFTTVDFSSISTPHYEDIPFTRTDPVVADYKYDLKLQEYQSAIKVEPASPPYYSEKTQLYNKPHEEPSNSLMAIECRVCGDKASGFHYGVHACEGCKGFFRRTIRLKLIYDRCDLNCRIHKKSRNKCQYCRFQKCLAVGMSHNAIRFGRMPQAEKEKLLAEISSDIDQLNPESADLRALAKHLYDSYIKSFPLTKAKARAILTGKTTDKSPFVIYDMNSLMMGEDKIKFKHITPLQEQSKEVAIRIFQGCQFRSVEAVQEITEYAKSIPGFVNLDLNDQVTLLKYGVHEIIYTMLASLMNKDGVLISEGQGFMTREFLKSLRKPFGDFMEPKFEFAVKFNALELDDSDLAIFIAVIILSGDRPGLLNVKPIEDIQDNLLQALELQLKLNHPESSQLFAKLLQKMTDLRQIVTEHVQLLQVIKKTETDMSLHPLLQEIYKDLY

[15] = Volume of distribution at steady state in rat plasma at 1 mg/kg, iv or 2 mg/kg, po by LC/MS/MS analysis; type: ADME, organism-based; settings: read-out: Vdss
[16] = Terminal half life in rat plasma at 1 mg/kg, iv or 2 mg/kg, po by LC/MS/MS analysis; type: ADME, organism-based; settings: read-out: beta t1/2 (converted)
[17] = Oral bioavailability in rat plasma at 2 mg/kg by LC/MS/MS analysis; type: ADME, organism-based
[18] = Clearance in mouse plasma at 2 mg/kg, iv or 30 mg/kg, po by LC/MS/MS analysis; type: ADME, organism-based
[19] = Volume of distribution at steady state in rhesus monkey plasma at 0.5 mg/kg, iv or 1 mg/kg, po by LC/MS/MS analysis; type: ADME, organism-based, Macaca mulatta; settings: read-out: Vdss

Sequence of Free fatty acid receptor 1 (O14842 whole entry): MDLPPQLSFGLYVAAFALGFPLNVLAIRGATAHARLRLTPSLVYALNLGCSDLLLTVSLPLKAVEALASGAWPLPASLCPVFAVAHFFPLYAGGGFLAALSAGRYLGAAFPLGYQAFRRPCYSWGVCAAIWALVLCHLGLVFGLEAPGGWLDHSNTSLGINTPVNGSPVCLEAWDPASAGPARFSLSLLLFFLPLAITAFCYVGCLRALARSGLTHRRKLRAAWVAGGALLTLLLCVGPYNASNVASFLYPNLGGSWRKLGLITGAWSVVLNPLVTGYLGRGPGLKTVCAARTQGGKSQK
Sequence of Cytochrome P450 2C9 (P11712 whole entry): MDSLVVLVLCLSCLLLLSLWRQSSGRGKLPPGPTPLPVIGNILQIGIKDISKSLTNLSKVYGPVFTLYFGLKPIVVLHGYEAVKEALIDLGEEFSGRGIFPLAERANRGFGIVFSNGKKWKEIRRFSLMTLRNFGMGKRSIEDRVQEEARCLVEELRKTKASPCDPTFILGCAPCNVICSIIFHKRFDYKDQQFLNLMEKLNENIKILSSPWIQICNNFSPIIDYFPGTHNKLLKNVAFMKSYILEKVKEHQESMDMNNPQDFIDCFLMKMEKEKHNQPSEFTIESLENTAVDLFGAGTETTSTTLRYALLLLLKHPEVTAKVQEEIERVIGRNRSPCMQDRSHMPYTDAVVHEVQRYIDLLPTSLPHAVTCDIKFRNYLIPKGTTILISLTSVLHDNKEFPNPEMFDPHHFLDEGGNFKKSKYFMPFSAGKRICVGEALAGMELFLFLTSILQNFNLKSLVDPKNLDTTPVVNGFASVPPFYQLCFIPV

EC50 [1]: 35 nM
EC50 [2]: 24 nM
Activity [3]: > 50%
EC50 [4]: > 10000 nM
half-life [5]: 2.1 h
concentration at 3 h [8]: 1.17 µM
concentration at 3 h [9]: 43.9 µM
IC50 [11]: > 50000 nM
Activity [12]: > 10 µM
Activity [13]: > 10 µM
Activity [14]: > 10 µM
Vd [15]: 0.3 L/kg
half-life [16]: 4.6 h
bioavailability [17]: 93%
clearance [18]: 9.9 mL/min/kg
Vd [19]: 0.27 L/kg
SMILES: CO[C@H]1C[C@H](Oc2cc(F)c(F)c(-c3ccc4c(c3)CC[C@H](CCC(=O)O)O4)n2)C1
Activity [6]: Active
Activity [7]: Dose-dependent effect
minimal effective dose ([7]; C57BL/6, Blood, read-out: MED): 10 mg/kg
IC50 [10]: > 60000 nM
